Source: ChEMBL document CHEMBL4340575, “Design, synthesis and biological evaluation of novel aryl-acrylic derivatives as novel indoleamine-2,3-dioxygenase 1 (IDO1) inhibitors” (Bioorg Med Chem, 2019)

Assays:
HeLa = assay: Toxicity in human HeLa cells assessed as reduction in cell viability; type: cell-based
[1] = biological target: T1, Indoleamine 2,3-dioxygenase 1 (Homo sapiens, UniProt P14902); assay: Inhibition of IDO1 in interferon-gamma-induced human HeLa cells using L-tryptophan substrate incubated for 24 hrs; type: cell-based
[2] = biological target: T1, Indoleamine 2,3-dioxygenase 1; assay: Inhibition of purified recombinant human IDO1 using L-tryptophan substrate incubated fro 30 mins

T1 sequence (P14902 whole entry): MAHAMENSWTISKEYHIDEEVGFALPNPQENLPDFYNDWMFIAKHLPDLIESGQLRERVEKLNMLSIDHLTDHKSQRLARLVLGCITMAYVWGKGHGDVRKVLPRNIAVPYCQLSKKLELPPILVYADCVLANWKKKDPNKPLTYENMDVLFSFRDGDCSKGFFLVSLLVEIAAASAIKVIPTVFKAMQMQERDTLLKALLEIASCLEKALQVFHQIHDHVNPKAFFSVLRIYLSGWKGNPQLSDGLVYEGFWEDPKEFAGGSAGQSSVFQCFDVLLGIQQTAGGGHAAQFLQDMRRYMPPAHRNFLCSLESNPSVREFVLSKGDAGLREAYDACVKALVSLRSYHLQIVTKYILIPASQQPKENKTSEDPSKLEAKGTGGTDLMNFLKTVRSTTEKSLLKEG

| IC50 [1] [µM] | IC50 [2] [µM] | SMILES | Activity (HeLa) |
| --- | --- | --- | --- |
| 2.83 | 12.3 | CCCCN(CCCC)c1ccc(/C(C)=C/C(=O)O)cc1NC(=O)N/N=C/c1ccccc1C(F)(F)F | Non-Toxic |
| 1.95 | 10.1 | C/C(=C\C(=O)O)c1ccc(N(CC(C)C)CC(C)C)c(NC(=O)N/N=C/c2ccccc2F)c1 | Non-Toxic |
| 20 | 58.3 | C/C(=C\C(=O)O)c1ccc(N2CCOCC2)c(-n2cc(CNc3ccc(F)cc3)nn2)c1 |  |
| 3.87 | 14.4 | CCCCN(CCCC)c1ccc(/C(C)=C/C(=O)O)cc1NC(=O)N/N=C/c1ccc(Cl)cc1 | Non-Toxic |
| 1.02 | 10.2 | C/C(=C\C(=O)O)c1ccc(N(CC(C)C)CC(C)C)c(NC(=O)N/N=C/c2ccc(Cl)cc2)c1 | Non-Toxic |
